What was measured:
CT-DNA = assay: DNA Thermal Denaturation Studies; type: binding; conditions: 1:5 [PBD]/[DNA], CT-DNA 100 μM, ligand 20 μM, sodium phosphate buffer pH 7.00, values ±0.1–0.2° C.; for Induced […]Tm ° C. after incubation at 37° C. 0 h: 0 h at 37° C.; for Induced […]Tm ° C. after incubation at 37° C. 18 h: 18 h at 37° C.
Procedure: For CT-DNA alone at pH 7.00±0.01, Tm=69.8° C.±0.01 (mean value from 10 separate determinations), all ΔTm values are ±0.1–0.2° C. For a 1:5 molar ratio of [PBD]/[DNA], where CT-DNA concentration=100 μM and ligand concentration=20 μM in aqueous sodium phosphate buffer [10 mM sodium phosphate+1 mM EDTA, pH 7.00±0.01].

HOP-62 = assay: In vitro cytotoxicity (SRB), percentage growth inhibition, HOP-62; type: cell-based, human; conditions: HOP-62 (lung), 48 hours
Procedure: (§1) In vitro cytotoxicity against human cancer cell lines: The human cancer cell lines procured from National Cancer Institute, Frederick, U.S.A or National Center for Cell Science; Pune, India. were used in present study. Cells were grown in tissue culture flasks in complete growth medium (RPMI-1640 medium with 2 mM glutamine, 100 μg/ml streptomycin, pH 7.4, sterilized by filtration and supplemented with 10% fetal calf serum and 100 units/ml penicillin before use) at 37° C. in an atmosphere of 5% CO2 and 90% relative humidity in a carbon dioxide incubator. The cells at subconfluent stage were harvested from the flask by treatment with trypsin (0.5% in PBS containing 0.02% EDTA) for determination of cytotoxicity. Cells with viability of more than 98% as determined by trypan blue exclusion were used for assay. The cell suspension of the required cell density were prepared in complete growth medium with gentamycin (50 μg/ml) for determination of cytotoxicity.
(§2) A stock solutions of (2×10^−2 M) of test material were prepared in DMSO. The stock solutions were serially diluted with complete growth medium containing 50 μg/ml of gentamycin to obtain working test solutions of required concentrations.
(§3) In vitro cytotoxicity against human cancer cell lines was determined (Monks, A., Scudiero, D., Skehan, P, Shoemaker R., Paull, K., Vistica, D., Hose, C., Langley, J., Cronise, P., Vaigro-Wolff, A., Gray-Goodrich, M., Campbell, H., Mayo, J and Boyd M. J. Natl. Cancer Inst., 1991, 83, 757–766) using 96-well tissue culture plates. The 100 μl of cell suspension was added to each well of the 96-well tissue culture plate. The cells were incubated for 24 hours. Test materials in complete growth medium (100 μl) were added after 24 hours incubation to the wells containing cell suspension. The plates were further incubated for 48 hours (at 37° C. in an atmosphere of […] 90% relative humidity in a carbon dioxide incubator) after addition of test material and then the cell growth was stopped by gently layering trichloroacetic acid (TCA, 50 μl, 50%) on top of the medium in all the wells. The plates were incubated at 4° C. for one hour to fix the cells attached to the bottom of the wells. The liquid of all the wells was gently pipetted out and discarded. The plates were washed five times with distilled water to remove TCA, growth medium low molecular weight metabolites, serum proteins etc and air-dried. Cell growth was measured by staining with sulforhodamine B dye (Skehan et al., 1990). The adsorbed dye was dissolved in Tris-Buffer ([…], 0.01 M, pH 10.4) and plates were gently stirred for 5 minutes on a mechanical stirrer. The optical density was recorded on ELISA reader at 540 nm.
(§4) The cell growth was calculated by subtracting mean OD value of respective blank from the mean OD value of experimental set. Percent growth in presence of test material was calculated considering the growth in absence of any test material as 100% and in turn percent growth inhibition in presence of test material will be calculated.

HT-29 = assay: In vitro cytotoxicity (SRB), percentage growth inhibition, HT-29; type: cell-based, human; conditions: HT-29 (colon), 48 hours
Procedure: as §1, §2, §3, §4

A-549 = assay: In vitro cytotoxicity (SRB), percentage growth inhibition, A-549; type: cell-based, human; conditions: A-549 (lung), 48 hours
Procedure: as §1, §2, §3, §4

SiHa = assay: In vitro cytotoxicity (SRB), percentage growth inhibition, SiHa; type: cell-based, human; conditions: SiHa (cervix), 48 hours
Procedure: as §1, §2, §3, §4

HCT-15 = assay: In vitro cytotoxicity (SRB), percentage growth inhibition, HCT-15; type: cell-based, human; conditions: HCT-15 (colon), 48 hours
Procedure: as §1, §2, §3, §4

Row | Structure (SMILES) | Induced […]Tm ° C. after incubation at 37° C. 0 h (CT-DNA) [°C] | Induced […]Tm ° C. after incubation at 37° C. 18 h (CT-DNA) [°C] | percentage growth inhibition HOP-62 (HOP-62; 10^−5 mol/L) [%] | percentage growth inhibition HOP-62 (HOP-62; 10^−6 mol/L) [%] | percentage growth inhibition HT-29 (HT-29; 10^−4 mol/L) [%] | percentage growth inhibition HT-29 (HT-29; 10^−5 mol/L) [%] | percentage growth inhibition HT-29 (HT-29; 10^−6 mol/L) [%] | percentage growth inhibition A-549 (A-549; 10^−4 mol/L) [%] | percentage growth inhibition SiHa (SiHa; 10^−4 mol/L) [%] | percentage growth inhibition SiHa (SiHa; 10^−5 mol/L) [%] | percentage growth inhibition SiHa (SiHa; 10^−6 mol/L) [%] | percentage growth inhibition HCT-15 (HCT-15; 10^−5 mol/L) [%] | percentage growth inhibition HCT-15 (HCT-15; 10^−6 mol/L) [%] | percentage growth inhibition HOP-62 (HOP-62; 10^−4 mol/L) [%] | percentage growth inhibition A-549 (A-549; 10^−5 mol/L) [%] | percentage growth inhibition A-549 (A-549; 10^−6 mol/L) [%]
1 | COc1cc2c(cc1OCCCCN1CCN(CCCCN3C(=O)c4cccc5cccc(c45)C3=O)CC1)N=C[C@@H]1CCCN1C2=O [VIIIe, 7-Methoxy-8-{4-[4-[4-(1,3-dioxo-benz[de]isoquinolin-2-yl)butyl]piperazin-1-yl]butyl}-oxy-(11aS)-1,2,3,11a tetrahydro-5H-pyrrolo[2,1-c][1,4]benzodiazepin-5-one] | 20.9 | 21.7 | 93 | 80 | 92 | 78 | 67 | 93 | 42 | 40 | 44 | 62 | 59 | – | – | –
2 | COc1cc2c(cc1OCCN1CCN(CCN3C(=O)c4cccc5cccc(c45)C3=O)CC1)N=C[C@@H]1CCCN1C2=O [VIIIa, 7-Methoxy-8-{2-[4-[2-(1,3-dioxo-benz[de]isoquinolin-2-yl)ethyl]piperazin-1-yl]ethyl}-oxy-(11aS)-1,2,3,11a tetrahydro-5H-pyrrolo[2,1-c][1,4]benzodiazepin-5-one] | 21.9 | 22.7 | – | – | – | – | – | – | – | – | – | – | – | – | – | –
3 | COc1cc2c(cc1OCCCN1CCN(CCN3C(=O)c4cccc5cccc(c45)C3=O)CC1)N=C[C@@H]1CCCN1C2=O [VIIIb, 7-Methoxy-8-{3-[4-[2-(1,3-dioxo-benz[de]isoquinolin-2-yl)ethyl]piperazin-1-yl]propyl}-oxy-(11aS)-1,2,3,11a tetrahydro-5H-pyrrolo[2,1-c][1,4]benzodiazepin-5-one] | 25.8 | 26.7 | 86 | 72 | 88 | 85 | 91 | 88 | – | 44 | 54 | 59 | 58 | – | – | –
4 | COc1cc2c(cc1OCCCN1CCN(CCCN3C(=O)c4cccc5cccc(c45)C3=O)CC1)N=C[C@@H]1CCCN1C2=O [VIIId, 7-Methoxy-8-{3-[4-[3-(1,3-dioxo-benz[de]isoquinolin-2-yl)propyl]piperazin-1-yl]propyl}-oxy-(11aS)-1,2,3,11a tetrahydro-5H-pyrrolo[2,1-c][1,4]benzodiazepin-5-one] | 13.1 | 14.3 | – | – | 95 | 62 | 63 | 95 | 85 | 65 | 31 | – | – | 78 | 30 | 51
5 | COc1cc2c(cc1OCCCCN1CCN(CCN3C(=O)c4cccc5cccc(c45)C3=O)CC1)N=C[C@@H]1CCCN1C2=O [VIIIc, 7-Methoxy-8-{4-[4-[2-(1,3-dioxo-benz[de]isoquinolin-2-yl)ethyl]piperazin-1-yl]butyl}-oxy-(11aS)-1,2,3,11a tetrahydro-5H-pyrrolo[2,1-c][1,4]benzodiazepin-5-one] | 23.4 | 24.2 | 93 | 86 | 94 | 86 | 80 | 95 | 56 | 39 | – | 69 | 60 | – | – | –
6 | COc1cc2c(cc1O)N=CC1CCCN1C2=O (centres unmarked) [DC-81, reference compound] | 0.3 | 0.7 | – | – | – | – | – | – | – | – | – | – | – | – | – | –

Source: patent publication US6979684B1, “Pyrrolo[2,1-c][1,4]benzodiazepine-napthalimide conjugates linked through piperazine moiety and process for preparation thereof” (Council of Scientific and Industrial Research, priority 2004, dated 2005)
